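Test compounds were applied to cells in 96-well plates for 48 hours at 5 doses. The concentration for 50% growth inhibition is given as GI50.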 Calls of active or inactive are those of the source. Rule as the data show it: active = GI50 up to about 1.1 µM and inactive = higher.

The results in this text go back to ChEMBL document CHEMBL1201862, “PubChem BioAssay data set” (2004).

Among the test systems are A549; HCT-116; SK-MEL-28; IGROV-1; HCT-15; RXF 393; ACHN; KM12; NCI-H522; HOP-92; TK-10; SF-295; SF-539; CAKI-1; SW-620; SN12C; SNB-19.
Assay in all cases: DTP human tumour cell line panel, 48 h

As usually defined, the GI50 is the concentration that inhibits growth by half. `O=c1nc(NC2CCCCO2)ccn1CCO` (stereo not drawn): the GI50 in the test on A549 was > 100 µM (inactive); in the test on HCT-116, > 100 µM (inactive); in the test on SK-MEL-28, > 100 µM (inactive); in the test on IGROV-1, > 100 µM (inactive); in the test on HCT-15, over 100 µM; with RXF 393 it was > 100 µM (inactive). The GI50 with ACHN, in the test on KM12, in the test with NCI-H522, in the test on HOP-92, with TK-10 and in the test with SF-295 was > 100 µM (inactive) throughout. Also, the GI50 in the test on SF-539, with CAKI-1, with SW-620 and in the test with SN12C was > 100 µM (inactive) each time.
Turning to `CCn1c(C)nn2c(=O)c3ccccc3nc2c1=O`, the GI50 in the test on A549 is > 100 µM (inactive); with HCT-116 it was > 100 µM (inactive); in the test with SK-MEL-28 it was > 100 µM (inactive); with IGROV-1, > 100 µM (inactive); with HCT-15 it was over 100 µM; in the test with ACHN, > 100 µM (inactive). The GI50 in the test with KM12 was > 100 µM (inactive); with HOP-92, 59.7 µM (inactive); in the test with TK-10 it was > 100 µM (inactive); in the test on SF-295, > 100 µM (inactive); in the test with SF-539 it was > 100 µM (inactive); with CAKI-1, > 100 µM (inactive). In the test on SW-620, the GI50 is > 100 µM (inactive).
As to `N#Cc1ccccc1NC(=O)/C(=N\Nc1ccc([N+](=O)[O-])cc1)C1C(=O)NC(=O)NC1=O`, the GI50 in the test with A549 is > 100 µM (inactive); in the test with HCT-116, > 100 µM (inactive); in the test on SK-MEL-28, > 100 µM (inactive); in the test with SNB-19 it was > 100 µM (inactive); with IGROV-1 it was > 100 µM (inactive); in the test with HCT-15 it was over 100 µM. For the same molecule, the GI50 in the test on RXF 393 is > 100 µM (inactive); with ACHN, > 100 µM (inactive); in the test with KM12, > 100 µM (inactive); in the test with NCI-H522, 92.3 µM (inactive); in the test with HOP-92 it was 3.69 µM (inactive); in the test on TK-10 it was > 100 µM (inactive). Also, the values for the GI50 in the test with SF-539, with CAKI-1 and in the test on SW-620 were > 100 µM (inactive), 31.4 µM (inactive) and > 100 µM (inactive), respectively.
As to `COc1ccc(/C=C(\C(C)=O)C(=O)Nc2ccccc2)cc1`, the GI50 was > 100 µM (inactive) in the test on A549; > 100 µM (inactive) in the test on HCT-116; > 100 µM (inactive) in the test on SK-MEL-28; > 100 µM (inactive) in the test with SNB-19; > 100 µM (inactive) in the test with IGROV-1; over 100 µM in the test with HCT-15. Besides, the GI50 in the test with RXF 393, in the test on ACHN, in the test with KM12, in the test on NCI-H522, with HOP-92 and in the test with TK-10 was > 100 µM (inactive) each time. The GI50 in the test on SF-295, in the test on SF-539, in the test on CAKI-1, with SW-620 and with SN12C was > 100 µM (inactive) throughout.
Consider `CC1=NN(c2ccccc2)C(=O)C1/N=N/c1ccc(Br)cc1C` (stereo not drawn), for which the GI50 is 40.5 µM (inactive) with A549; 81.3 µM (inactive) with HCT-116; > 100 µM (inactive) in the test on SK-MEL-28; 85.9 µM (inactive) in the test on SNB-19; 67.3 µM (inactive) with IGROV-1; over 100 µM with HCT-15. Besides, the GI50 in the test with RXF 393 is 50.5 µM (inactive); in the test on ACHN it was 37.3 µM (inactive); in the test with KM12, > 100 µM (inactive); in the test on HOP-92, 38.6 µM (inactive); with TK-10 it was 39.4 µM (inactive); in the test on SF-295 it was 72.8 µM (inactive). For the same molecule, the GI50 with SF-539 is 58.9 µM (inactive); in the test with CAKI-1, 46.2 µM (inactive); in the test on SW-620, > 100 µM (inactive); with SN12C, > 100 µM (inactive).
As to `CC(C)c1ccc(O)c(Cc2cc(C(C)C)cc(Cc3cc(C(C)C)ccc3O)c2O)c1`, the GI50 in the test with A549 is 1.9 µM (inactive); in the test with HCT-116, 1.78 µM (inactive); in the test on SK-MEL-28 it was 1.73 µM (inactive); in the test on SNB-19, 1.65 µM (inactive); in the test with IGROV-1, 2.46 µM (inactive); with HCT-15, 1.7 µM. Also, the GI50 in the test on ACHN was 3.56 µM (inactive); with KM12, 1.97 µM (inactive); in the test with NCI-H522, 1.57 µM (inactive); in the test on HOP-92, 1.79 µM (inactive); in the test on TK-10, 1.93 µM (inactive); in the test with SF-295 it was 1.88 µM (inactive). The results for the GI50 with CAKI-1, in the test on SW-620 and in the test with SN12C were 1.53 µM (inactive), 1.72 µM (inactive) and 1.77 µM (inactive), respectively.
Consider `COc1ccc(NC(=O)C(=O)c2c(O)c3ccc(O)cc3oc2=O)c([N+](=O)[O-])c1`, for which the GI50 with A549 is > 100 µM (inactive); in the test with HCT-116, > 100 µM (inactive); with SK-MEL-28, > 100 µM (inactive); with SNB-19, > 100 µM (inactive); in the test on IGROV-1, > 100 µM (inactive); in the test with HCT-15, over 100 µM. Also, the GI50 in the test with RXF 393, in the test on ACHN, in the test on KM12, in the test on NCI-H522, in the test on HOP-92 and in the test with TK-10 was > 100 µM (inactive) throughout. The GI50 with SF-295, in the test with SF-539, in the test with CAKI-1 and in the test on SW-620 was > 100 µM (inactive) each time.
With `CCN(CC)c1ccc(/N=N/c2ccc(-c3nc4ccc[n+](C)c4o3)cc2)cc1`, the GI50 with A549 was 9.77 µM (inactive); in the test on HCT-116, 4.18 µM (inactive); with SNB-19 it was 13.3 µM (inactive); in the test with IGROV-1, 12.9 µM (inactive); in the test on HCT-15, 10.3 µM; in the test with RXF 393, 10.7 µM (inactive). The GI50 in the test on KM12 is 11.1 µM (inactive); with NCI-H522, 4.93 µM (inactive); in the test on HOP-92 it was 15.2 µM (inactive); in the test with TK-10, 12.3 µM (inactive); in the test on SF-295 it was 14.8 µM (inactive); with SF-539, 5.46 µM (inactive). In addition, the results for the GI50 in the test on CAKI-1, in the test on SW-620 and with SN12C were 12.9 µM (inactive), 4.76 µM (inactive) and 15.5 µM (inactive), respectively.
Consider `CC1(C(=O)Nc2ccc3cc4ccccc4cc3c2)CC2(C)CC(C)(C1)C(O)NC2=O` (stereo not drawn), for which the GI50 with A549 is 98.4 µM (inactive); in the test with HCT-116, > 100 µM (inactive); in the test with SK-MEL-28, > 100 µM (inactive); in the test with IGROV-1, > 100 µM (inactive); with HCT-15, over 100 µM; in the test with RXF 393, > 100 µM (inactive). For the same molecule, the GI50 is 36.7 µM (inactive) in the test on ACHN; > 100 µM (inactive) in the test on KM12; 59.3 µM (inactive) with HOP-92; 63 µM (inactive) in the test on TK-10; 66.5 µM (inactive) in the test on SF-295; > 100 µM (inactive) in the test with SF-539. The GI50 with CAKI-1, in the test on SW-620 and in the test with SN12C was > 100 µM (inactive) throughout.
Consider `O=C(Nc1c(Cl)cc([N+](=O)[O-])cc1Cl)C(=O)C(C(=O)c1ccncc1)C1OC(=O)c2ccccc21` (stereo not drawn), for which the GI50 in the test on A549 was > 100 µM (inactive); in the test with HCT-116, > 100 µM (inactive); in the test on SK-MEL-28 it was > 100 µM (inactive); in the test on SNB-19, > 100 µM (inactive); in the test with IGROV-1, > 100 µM (inactive); with HCT-15, over 100 µM. The GI50 in the test on RXF 393, in the test with ACHN, in the test on KM12, in the test on NCI-H522, with HOP-92 and in the test on TK-10 was > 100 µM (inactive) throughout. Also, the GI50 in the test on SF-295, in the test on CAKI-1, with SW-620 and in the test with SN12C was > 100 µM (inactive) each time.
As to `COC(=O)c1ccccc1N(C(=O)c1ccccc1)c1ccccc1C`, the GI50 was 61.9 µM (inactive) in the test on A549; 56.8 µM (inactive) in the test on HCT-116; > 100 µM (inactive) with SK-MEL-28; > 100 µM (inactive) in the test on SNB-19; 76.6 µM (inactive) with IGROV-1; 38.5 µM with HCT-15. The GI50 with RXF 393 is 30.7 µM (inactive); with ACHN, 53.6 µM (inactive); with KM12, 32.7 µM (inactive); in the test with NCI-H522 it was 30.7 µM (inactive); in the test on TK-10 it was 41.6 µM (inactive); in the test on SF-295, 44.2 µM (inactive). The GI50 in the test on CAKI-1 was 34.4 µM (inactive); with SW-620, 59.8 µM (inactive); in the test with SN12C, > 100 µM (inactive).
`c1ccc2c3c([nH]c2c1)C1C2CCCCN2C(c2ccncc2)N1CC3` (stereo not drawn): the GI50 in the test on A549 is 32.2 µM (inactive); in the test with HCT-116, 35 µM (inactive); with SK-MEL-28, 39.9 µM (inactive); in the test on SNB-19, 25.4 µM (inactive); in the test with HCT-15, 35.5 µM; in the test with RXF 393, 29.3 µM (inactive). For the same molecule, the GI50 is 46.1 µM (inactive) in the test on ACHN; 35.9 µM (inactive) with KM12; 39.2 µM (inactive) in the test on NCI-H522; 38.9 µM (inactive) in the test with SF-295; 58.3 µM (inactive) in the test on SF-539; 34.4 µM (inactive) in the test with CAKI-1. The GI50 is 33.5 µM (inactive) in the test with SW-620 and 39.1 µM (inactive) in the test on SN12C.
As to `CCOC(=O)Nc1ccc(S(=O)(=O)OC)cc1.CCOC(=O)Nc1ccc(S(=O)(=O)OC)cc1.NNC(=O)c1ccncc1`, the GI50 with A549 was > 50 µM (inactive); in the test on HCT-116, 14.3 µM (inactive); with SK-MEL-28, > 50 µM (inactive); with SNB-19, > 50 µM (inactive); with IGROV-1, > 50 µM (inactive); in the test on HCT-15, over 50 µM. The GI50 in the test with ACHN, in the test with KM12, in the test with HOP-92, in the test on TK-10, in the test with SF-295 and in the test with SF-539 was > 50 µM (inactive) each time. Also, the GI50 with CAKI-1 was > 50 µM (inactive); with SW-620, 12.1 µM (inactive); with SN12C it was > 50 µM (inactive).
